Measured values as given in patent US20130137865A1 (TAISHO PHARMACEUTICAL CO., LTD., priority 2010, published 2013).

Tests used:
rat mGlu2 receptor = target: T1, rat mGlu2 receptor (Rattus norvegicus, UniProt P31421); assay: [35S]GTPγS binding test (1), membranes of CHO cells stably expressing rat mGlu2; type: biochemical; conditions: inhibition of glutamic acid (20 μM)-stimulated specific [35S]GTPγS binding
T1 construct: expressed in transfected cells; host or cells: CHO cells
Method: (Preparation of Crude Membrane Fraction of CHO Cells Stably Expressing the Rat Metabotropic Glutamate Receptor (mGlu2))
(§1) CHO cells stably expressing the rat mGlu2 receptor were cultured in a 10% dialyzed fetal bovine serum-containing Dulbecco's Modified Eagle's Medium [1% proline, 50 units/mL penicillin, 50 μg/mL streptomycin, and 2 mM L-glutamine (to be added when used)] at 37° C. in 5% CO2. Confluent cells were washed with PBS(−) twice, and were then harvested with a cell scraper. Then, the cells were centrifuged at 4° C. at 1000 rpm for 5 minutes to collect. The obtained precipitate was suspended in a 20 mM HEPES buffer (pH 7.4), and then homogenized with a Teflon® homogenizer. The resultant was centrifuged at 4° C. at 48,000×g for 20 minutes to obtain a precipitate again. The obtained precipitate was washed twice by centrifugation, and was then homogenized with the above-mentioned buffer, so as to obtain a crude membrane fraction. The obtained crude membrane fraction was preserved at −80° C.
(§2) The frozen membrane fraction as prepared above was thawed when used, and it was then diluted with a binding test buffer (final concentration: 20 mM HEPES, 100 mM NaCl, 10 mM MgCl2, 8.4 μM GDP, 10 μg/mL saponin, and 0.1% BSA). The compound of the Example was added to a membrane fraction (10 μg protein/assay), and the obtained mixture was then incubated at 30° C. for 20 minutes. Thereafter, glutamic acid (final concentration: 20 μM) and [^35S]GTPγS (final concentration: 0.15 nM) were added to the reaction mixture, and then incubated at 30° C. for 1 hour. After completion of the incubation, the reaction mixture was subjected to filtration over a Whatman GF/C filter that had previously been immersed in a 20 mM HEPES buffer (pH 7.4), and the filter was then washed three times with 300 μL of ice-cold 20 mM HEPES buffer (pH 7.4). A scintillation cocktail was added to the resulting filter, and membrane-bound radioactivity was then measured with a liquid scintillation counter.
(§3) The amount of [^35S]GTPγS bound in the case of carrying out the above described reaction in the absence of glutamic acid was defined as non-specific binding. The difference between such non-specific bound and the amount of [^35S]GTPγS bound in the presence of glutamic acid was defined as specific binding. Using non-linear analysis, a concentration-inhibition curve was produced. The concentration of the compound of each Example that caused 50% inhibition (IC50 value) of specific binding was determined from each concentration-inhibition curve.

human mGlu2 receptor = target: T2, human mGlu2 receptor (Homo sapiens, UniProt Q14416); assay: [35S]GTPγS binding test (2), membranes of CHO cells stably expressing human mGlu2; type: biochemical; conditions: inhibition of glutamic acid (20 μM)-stimulated specific [35S]GTPγS binding
T2 construct: expressed in transfected cells; host or cells: CHO cells
T2 sequence (Q14416 19-872): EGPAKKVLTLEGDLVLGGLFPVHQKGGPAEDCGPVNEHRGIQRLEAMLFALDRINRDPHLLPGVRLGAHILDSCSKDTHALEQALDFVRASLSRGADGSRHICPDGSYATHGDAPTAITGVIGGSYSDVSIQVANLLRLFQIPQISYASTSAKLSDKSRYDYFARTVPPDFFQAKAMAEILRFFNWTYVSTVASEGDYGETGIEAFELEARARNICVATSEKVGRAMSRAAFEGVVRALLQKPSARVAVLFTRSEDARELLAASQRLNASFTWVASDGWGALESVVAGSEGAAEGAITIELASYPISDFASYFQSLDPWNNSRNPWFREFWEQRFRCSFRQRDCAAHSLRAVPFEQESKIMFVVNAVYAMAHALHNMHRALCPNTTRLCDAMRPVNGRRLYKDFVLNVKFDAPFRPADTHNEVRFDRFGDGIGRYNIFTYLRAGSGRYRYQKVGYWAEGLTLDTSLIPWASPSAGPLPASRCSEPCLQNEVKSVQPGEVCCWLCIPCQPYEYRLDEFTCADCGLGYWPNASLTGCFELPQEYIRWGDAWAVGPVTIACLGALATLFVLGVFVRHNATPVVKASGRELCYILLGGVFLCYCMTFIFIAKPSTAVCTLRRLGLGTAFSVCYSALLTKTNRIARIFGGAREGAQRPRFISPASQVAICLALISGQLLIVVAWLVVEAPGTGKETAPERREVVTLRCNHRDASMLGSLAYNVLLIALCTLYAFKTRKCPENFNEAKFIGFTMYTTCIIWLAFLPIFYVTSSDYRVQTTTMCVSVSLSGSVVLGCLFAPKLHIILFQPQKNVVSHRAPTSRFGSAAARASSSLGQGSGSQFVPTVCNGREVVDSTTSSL
Method: (Preparation of Crude Membrane Fraction of CHO Cells Stably Expressing the Human Metabotropic Glutamate Receptor (mGlu2))
as §1, with “human” for “rat”, “streptomycin, 400 μg/mL hygromycin B,” for “streptomycin,”
as §2, §3

T1 sequence (P31421 19-872): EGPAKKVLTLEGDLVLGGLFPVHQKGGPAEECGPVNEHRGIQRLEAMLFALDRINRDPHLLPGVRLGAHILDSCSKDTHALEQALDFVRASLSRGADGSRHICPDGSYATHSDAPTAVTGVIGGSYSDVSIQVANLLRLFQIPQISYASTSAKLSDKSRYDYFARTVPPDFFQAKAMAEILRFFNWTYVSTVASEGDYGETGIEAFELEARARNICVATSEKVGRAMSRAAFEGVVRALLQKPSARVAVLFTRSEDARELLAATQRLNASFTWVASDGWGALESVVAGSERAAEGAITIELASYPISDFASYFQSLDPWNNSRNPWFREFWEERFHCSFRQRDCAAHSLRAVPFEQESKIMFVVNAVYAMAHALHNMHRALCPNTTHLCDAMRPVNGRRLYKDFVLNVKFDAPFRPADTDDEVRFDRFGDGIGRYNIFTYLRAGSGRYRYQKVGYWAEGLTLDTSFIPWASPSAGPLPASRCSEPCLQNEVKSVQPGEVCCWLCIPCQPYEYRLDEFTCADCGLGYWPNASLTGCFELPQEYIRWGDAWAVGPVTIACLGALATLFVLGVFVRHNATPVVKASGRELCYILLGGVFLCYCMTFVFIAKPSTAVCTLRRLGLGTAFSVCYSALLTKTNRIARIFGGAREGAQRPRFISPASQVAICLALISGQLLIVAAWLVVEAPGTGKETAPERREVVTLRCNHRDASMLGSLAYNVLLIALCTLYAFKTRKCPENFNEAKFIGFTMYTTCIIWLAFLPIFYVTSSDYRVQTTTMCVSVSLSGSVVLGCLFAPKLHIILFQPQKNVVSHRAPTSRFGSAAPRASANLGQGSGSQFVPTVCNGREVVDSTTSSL

IC50 (rat mGlu2 receptor) [nM] | IC50 (human mGlu2 receptor) [nM] | SMILES
3.65 |  | Cn1ncc(-c2noc(-c3ccc(S(N)(=O)=O)cc3)n2)c1CCc1ccc(C(F)(F)F)cc1 [Example 3, 4-[3-(1-Methyl-5-{2-[4-(trifluoromethyl)phenyl]ethyl}-1H-pyrazol-4-yl)-1,2,4-oxadiazol-5-yl]benzenesulfonamide]
58.5 |  | Cn1ncc(-n2cc(-c3ccc(S(N)(=O)=O)cc3)cn2)c1CCc1ccc(C(F)(F)F)cc1 [Example 6, 4-(1′-Methyl-5′-{2-[4-(trifluoromethyl)phenyl]ethyl}-1′H-1,4′-bipyrazol-4-yl)benzenesulfonamide]
17.6 |  | Cn1ncc(-c2nc(-c3cccc(S(N)(=O)=O)c3)no2)c1C#Cc1ccc(C(F)(F)F)cn1 [Example 7, 3-[5-(1-Methyl-5-{[5-(trifluoromethyl)pyridin-2-yl]ethynyl}-1H-pyrazol-4-yl)-1,2,4-oxadiazol-3-yl]benzenesulfonamide]
 | 10.3 | Cn1ncc(-c2nc(-c3cccc(S(N)(=O)=O)c3)no2)c1COc1ccc(F)cn1 [Example 72, 3-[5-(5-{[(5-Fluoropyridin-2-yl)oxy]methyl}-1-methyl-1H-pyrazol-4-yl)-1,2,4-oxadiazol-3-yl]benzenesulfonamide]
 | 36.7 | Cn1ncc(-c2nc(-c3cccc(S(N)(=O)=O)c3)no2)c1COc1ccccn1 [Example 75, 3-(5-{1-Methyl-5-[(pyridin-2-yloxy)methyl]-1H-pyrazol-4-yl}-1,2,4-oxadiazole-3-yl)benzenesulfonamide]
 | 13.6 | CN(C)CCNS(=O)(=O)c1cccc(-c2noc(-c3cnn(C)c3COc3ccc(F)cn3)n2)c1 [Example 85, N-[2-(Dimethylamino)ethyl]-3-[5-(5-{[(5-fluoropyridin-2-yl)oxy]methyl}-1-methyl-1H-pyrazol-4-yl)-1,2,4-oxadiazol-3-yl]benzenesulfonamide]
 | 28.6 | Cn1ncc(-c2nc(-c3ccc(N)nc3)no2)c1COc1ccc(C(F)(F)F)cc1 [Example 92, 5-[5-(1-Methyl-5-{[4-(trifluoromethyl)phenoxy]methyl}-1H-pyrazol-4-yl)-1,2,4-oxadiazol-3-yl]pyridine-2-amine]
 | 1.33 | Cn1ncc(-c2nc(-c3cccc(S(N)(=O)=O)c3)no2)c1COc1ccc(C(F)(F)F)cn1 [Example 122, 3-{5-[1-Methyl-5-({[5-(trifluoromethyl)pyridin-2-yl]oxy}methyl)-1H-pyrazol-4-yl]-1,2,4-oxadiazol-3-yl}benzenesulfonamide]
 | 13.2 | CNS(=O)(=O)c1cccc(-c2noc(-c3cnn(C)c3COc3ccccn3)n2)c1 [Example 146, N-Methyl-3-(5-{1-methyl-5-[(pyridin-2-yloxy)methyl]-1H-pyrazol-4-yl}-1,2,4-oxadiazol-3-yl)benzenesulfonamide]
 | 21.5 | Cn1ncc(-c2nnc(-c3cccc(S(N)(=O)=O)c3)o2)c1COc1ccc(C(F)(F)F)cn1 [Example 187, 3-{5-[1-Methyl-5-({[5-(trifluoromethyl)pyridin-2-yl]oxy}methyl)-1H-pyrazol-4-yl]-1,3,4-oxadiazol-2-yl}benzenesulfonamide]
 | 67.2 | Cn1ncc(-c2nnc(-c3ccc(S(N)(=O)=O)cc3)o2)c1COc1ccc(C(F)(F)F)cc1 [Example 190, 4-[5-(1-Methyl-5-{[4-(trifluoromethyl)phenoxy]methyl}-1H-pyrazol-4-yl)-1,3,4-oxadiazol-2-yl]benzenesulfonamide]
 | 3.85 | Cn1ncc(-c2coc(-c3cccc(S(N)(=O)=O)c3)n2)c1COc1ccc(C(F)(F)F)cc1 [Example 203, 3-[4-(1-Methyl-5-{[4-(trifluoromethyl)phenoxy]methyl}-1H-pyrazol-4-yl)-1,3-oxazol-2-yl]benzenesulfonamide]
 | 50.8 | Cn1ncc(-c2cc(-c3cccc(S(N)(=O)=O)c3)on2)c1COc1ccc(F)cn1 [Example 204, 3-[3-(5-{[(5-Fluoropyridin-2-yl)oxy]methyl}-1-methyl-1H-pyrazol-4-yl)-1,2-oxazol-5-yl]benzenesulfonamide]
 | 29.1 | CC(=O)Nc1cc(-c2noc(-c3cnn(C)c3COc3ccc(C(F)(F)F)cc3)n2)ccn1 [Example 208, N-{4-[5-(1-methyl-5-{[4-(trifluoromethyl)phenoxy]methyl}-1H-pyrazol-4-yl)-1,2,4-oxadiazol-3-yl]pyridin-2-yl}acetamide]
 | 26.4 | Cn1ncc(-c2nc(-c3cccc(S(N)(=O)=O)c3)no2)c1COc1ncc(F)cc1Br [Example 214, 3-[5-(5-{[(3-Bromo-5-fluoropyridin-2-yl)oxy]methyl}-1-methyl-1H-pyrazol-4-yl)-1,2,4-oxadiazol-3-yl]benzenesulfonamide]
 | 49.1 | Cn1ncc(-c2nc(-c3ccc(S(C)(=O)=O)cc3)no2)c1COc1ccc(C(F)(F)F)cn1 [Example 215, 2-[(1-Methyl-4-{3-[4-(methylsulfonyl)phenyl]-1,2,4-oxadiazol-5-yl}-1H-pyrazol-5-yl)methoxy]-5-(trifluoromethyl)pyridine]
 | 4.32 | Cn1ncc(-c2nc(-c3cccc(S(C)(=O)=O)c3)no2)c1COc1ccc(C(F)(F)F)cn1 [Example 216, 2-[(1-Methyl-4-{3-[3-(methylsulfonyl)phenyl]-1,2,4-oxadiazol-5-yl}-1H-pyrazol-5-yl)methoxy]-5-(trifluoromethyl)pyridine]
 | 14.9 | CC(=O)Nc1cc(-c2noc(-c3cnn(C)c3COc3ccc(C(F)(F)F)cn3)n2)ccn1 [Example 217, N-(4-{5-[1-Methyl-5-({[5-(trifluoromethyl)pyridin-2-yl]oxy}methyl)-1H-pyrazol-4-yl]-1,2,4-oxadiazol-3-yl}pyridin-2-yl)acetamide]
 | 68 | Cn1ncc(-c2nc(-c3cnc(N)nc3)no2)c1COc1ccc(C(F)(F)F)cn1 [Example 218, 5-{5-[1-Methyl-5-({[5-(trifluoromethyl)pyridin-2-yl]oxy}methyl)-1H-pyrazol-4-yl]-1,2,4-oxadiazol-3-yl}pyrimidine-2-amine]
 | 32.2 | Cn1ncc(-c2nc(-c3cccc(N)c3)no2)c1COc1ccc(C(F)(F)F)cn1 [Example 220, 3-{5-[1-Methyl-5-({[5-(trifluoromethyl)pyridin-2-yl]oxy}methyl)-1H-pyrazol-4-yl]-1,2,4-oxadiazol-3-yl}aniline]
 | 17.1 | Cn1ncc(-c2nc(-c3cncc(S(C)(=O)=O)c3)no2)c1COc1ccc(C(F)(F)F)cn1 [Example 223, 2-[(1-Methyl-4-{3-[5-(methylsulfonyl)pyridin-3-yl]-1,2,4-oxadiazol-5-yl}-1H-pyrazol-5-yl)methoxy]-5-(trifluoromethyl)pyridine]
 | 3.64 | Cn1ncc(-c2nc(-c3cncc(S(N)(=O)=O)c3)no2)c1COc1ccc(C(F)(F)F)cn1 [Example 224, 5-{5-[1-Methyl-5-({[5-(trifluoromethyl)pyridin-2-yl]oxy}methyl)-1H-pyrazol-4-yl]-1,2,4-oxadiazol-3-yl}pyridine-3-sulfonamide]
 | 56.9 | Cn1ncc(-c2nc(-c3cc[nH]c(=O)c3)no2)c1COc1ccc(C(F)(F)F)cn1 [Example 228, 4-{5-[1-Methyl-5-({[5-(trifluoromethyl)pyridin-2-yl]oxy}methyl)-1H-pyrazol-4-yl]-1,2,4-oxadiazol-3-yl}pyridine-2(1H)-one]
 | 33.2 | CNCCNS(=O)(=O)c1cccc(-c2noc(-c3cnn(C)c3COc3ccc(F)cn3)n2)c1 [Example 232, 3-[5-(5-{[(5-Fluoropyridin-2-yl)oxy]methyl}-1-methyl-1H-pyrazol-4-yl)-1,2,4-oxadiazol-3-yl]-N-[2-(methylamino)ethyl]benzenesulfonamide]
 | 80.6 | Cn1nc(-c2cccc(S(N)(=O)=O)c2)nc1-c1cnn(C)c1COc1ccc(C(F)(F)F)cc1 [Example 233, 3-[1-Methyl-5-(1-methyl-5-{[4-(trifluoromethyl)phenoxy]methyl}-1H-pyrazol-4-yl)-1H-1,2,4-triazol-3-yl]benzenesulfonamide]
